Details: Fluid (supercritical or subcritical phases), Coaxial cylinder method

CCCCCC [hexane]
thermal conductivity [W/m/K]
Details	509.85 K	510.36 K
245 kPa	–	0.0379
1000 kPa	–	0.03854
2245 kPa	–	0.04183
2715 kPa	–	0.04665
2965 kPa	0.05466	–
2970 kPa	0.05502	–
2975 kPa	0.05557	–
2980 kPa	0.05557	–
2985 kPa	0.05595	–
2990 kPa	0.05595	–
2995 kPa	0.05651	–
3000 kPa	0.0569	–
3005 kPa	0.05749	–
3010 kPa	0.05788	–
3015 kPa	0.05829	–
3020 kPa	0.05869	–
3025 kPa	0.05975	–
3030 kPa	0.05975	–
3035 kPa	0.05975	–
3040 kPa	0.06085	–
3045 kPa	0.0613	–
3050 kPa	0.0618	–
3055 kPa	0.06256	–
3060 kPa	0.06305	–
3065 kPa	0.06429	–
3070 kPa	0.06507	–
3080 kPa	0.06696	–
3085 kPa	0.06809	–
3090 kPa	0.06955	–
3095 kPa	0.07139	–
3100 kPa	0.07333	–
3105 kPa	0.07573	–
3110 kPa	0.07753	0.06796
3112 kPa	–	0.06824
3114 kPa	–	0.06881
3115 kPa	0.08101	–
3116 kPa	–	0.06939
3118 kPa	–	0.07027
3120 kPa	0.08569	0.07087
3122 kPa	–	0.07148
3124 kPa	–	0.07242
3125 kPa	0.08932	–
3126 kPa	–	0.07338
3128 kPa	–	0.07403
3130 kPa	0.09098	0.0747
3132 kPa	–	0.07538
3133 kPa	–	0.07607
3134 kPa	–	0.07624
3135 kPa	0.09203	–
3137 kPa	–	0.0784
3138 kPa	–	0.07915
3139 kPa	–	0.07991
3140 kPa	0.08826	0.08056
3141 kPa	–	0.08119
3142 kPa	–	0.08199
3143 kPa	–	0.08268
3144 kPa	–	0.0833
3145 kPa	0.08512	0.08393
3146 kPa	–	0.08457
3147 kPa	–	0.08501
3148 kPa	–	0.08552
3150 kPa	0.0829	0.08631
3151 kPa	–	0.08656
3152 kPa	–	0.08673
3153 kPa	–	0.08695
3154 kPa	–	0.08709
3155 kPa	0.08149	0.087
3156 kPa	–	0.08691
3157 kPa	–	0.08682
3158 kPa	–	0.08656
3159 kPa	–	0.08634
3160 kPa	0.07984	0.08604
3161 kPa	–	0.08582
3162 kPa	–	0.08548
3163 kPa	–	0.08518
3164 kPa	–	0.08476
3166 kPa	–	0.08393
3168 kPa	–	0.0832
3170 kPa	0.07755	0.08248
3172 kPa	–	0.08173
3174 kPa	–	0.08088
3176 kPa	–	0.08019
3178 kPa	–	0.07941
3180 kPa	0.07646	0.07883
3182 kPa	–	0.07826
3184 kPa	–	0.07767
3186 kPa	–	0.07716
3188 kPa	–	0.07654
3190 kPa	0.07505	0.076
3192 kPa	–	0.07563
3194 kPa	–	0.07525
3196 kPa	–	0.07489
3198 kPa	–	0.07452
3200 kPa	0.07436	0.07416
3202 kPa	–	0.0738
3204 kPa	–	0.07362
3206 kPa	–	0.07337
3208 kPa	–	0.07309
3210 kPa	0.07368	0.07292
3212 kPa	–	0.07274
3214 kPa	–	0.0724
3216 kPa	–	0.0724
3218 kPa	–	0.07206
3220 kPa	0.07319	0.07206
3222 kPa	–	0.07189
3225 kPa	–	0.07175
3228 kPa	–	0.07155
3230 kPa	0.07264	–
3240 kPa	0.07251	–
3250 kPa	0.07211	–
3260 kPa	0.07181	–
3270 kPa	0.07177	–
3280 kPa	0.07145	–
3290 kPa	0.07134	–
3300 kPa	0.07091	–
3310 kPa	0.07096	–
3320 kPa	0.07054	–
3330 kPa	0.07035	–
3340 kPa	0.06992	–
3390 kPa	0.06989	–
3400 kPa	0.06989	–
3450 kPa	0.06947	–
3500 kPa	0.06961	–
3600 kPa	0.06975	–
3800 kPa	0.07031	–
4000 kPa	0.07061	–
4200 kPa	0.07105	–
4400 kPa	0.07134	–
4600 kPa	0.07179	–
4800 kPa	0.07215	–
5000 kPa	0.07254	–
5200 kPa	0.07285	–
5400 kPa	0.07315	–
5600 kPa	0.07355	–
5800 kPa	0.07393	–
6000 kPa	0.07421	–
6200 kPa	0.07453	–
6400 kPa	0.07484	–
6600 kPa	0.07514	–
6800 kPa	0.07543	–
7000 kPa	0.0757	–
7200 kPa	0.07596	–
7400 kPa	0.07619	–
7600 kPa	0.07646	–
7800 kPa	0.07673	–
8000 kPa	0.07679	–
8200 kPa	0.07703	–
8500 kPa	0.07741	–
9000 kPa	0.07802	–
9500 kPa	0.07856	–
10000 kPa	0.0791	–
